{"source": "patent US11702408B2", "about": "“5-membered aza-heterocyclic containing delta-opioid receptor modulating compounds, methods of using and making the same” (Trevena, Inc., priority 2017, dated 2023)", "key": {"adult male C57 mice": {"system": "adult male C57 mice", "test": "Tail suspension test (TST)", "assay_type": "in vivo, mouse", "details": "TST route sc, p < 0.05 compared to vehicle-treated mice", "method": "The experiments were performed using adult male C57 mice (6-10 weeks of age, 20-30 g, Hilltop Lab, PA). The mice were housed in standard rodent cages with stainless steel mesh wire bar lids in groups of 4 with controlled temperature and light cycle (6:00 a.m.-6:00 p.m.). Animals were given free access to food (Harlan Teklad Global 18% protein (Madison, Wis.)) and water during a minimum 2-day habituation period to the laboratory. Animals that were used in the study were handled, housed, and sacrificed (using compressed CO2) in accord with the current NIH guidelines regarding the use and care of laboratory animals, and all applicable local, state, and federal regulations and guidelines. Animals are identified by cage number, and by markings applied to the proximal tip of the tail using a permanent marker. Group sizes (n=8, and therefore 30-50 animals per study) provide reliable estimates of treatment effects, and this species and strain of mouse has been recognized as appropriate for pharmacology studies.\nTo measure efficacy of the compounds the compounds were tested using a tail suspension test. The tail suspension test is a behavioral test used to evaluate the efficacy of antidepressant drugs in rodents. In the TST, mice (n=8/group) were suspended by the tail with tape approximately 30-50 cm above the lab bench. Mice are positioned such that the base of their tail is perpendicular to the lab bench. Each mouse is given 1 trial that last 6 minutes. The total duration of immobility is calculated as the percentage of time that the mouse is immobile. The duration of immobility is the main parameter measured. This is calculated from the cumulated time during which the animals is absent of initiated movements including passive swaying. When antidepressant drugs are administered, immobility is decreased by a variety of classes of antidepressant drugs. One or more of the compounds show antidepressant activity."}, "[1]": {"target": "T1, delta-opioid receptor (Accession NP_000902) (Homo sapiens, UniProt P41143)", "T1 sequence (P41143 whole entry)": "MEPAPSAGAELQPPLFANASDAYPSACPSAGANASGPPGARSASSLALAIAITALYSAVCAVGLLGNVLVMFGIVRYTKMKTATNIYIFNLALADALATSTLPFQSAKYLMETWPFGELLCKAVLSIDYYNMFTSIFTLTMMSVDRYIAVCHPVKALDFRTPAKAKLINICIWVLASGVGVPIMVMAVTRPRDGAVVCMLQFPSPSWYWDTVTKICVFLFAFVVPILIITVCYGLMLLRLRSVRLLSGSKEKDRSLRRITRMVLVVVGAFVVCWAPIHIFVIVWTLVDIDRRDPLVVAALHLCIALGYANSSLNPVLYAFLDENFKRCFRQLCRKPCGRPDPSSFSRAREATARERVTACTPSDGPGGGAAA", "test": "cAMP assay (receptor G-protein mediated response, HTRF)", "assay_type": "cell-based", "method": "(§1) Plasmids encoding delta-opioid receptor (Accession NP_000902), mu-opioid receptor (Accession NP_000905) and kappa-opioid receptor (Accession Assession NP_000903) were generated in the pCMV-Prolink backbone and transfected into an EA-arrestin parental human embryonic kidney (HEK-293) cell line from DiscoveRx Corporation. Clonal stable lines were subsequently selected under G418.\nCell lines were grown adherently in Minimum Essential Media (Cellgro cat #10-010-CM) containing 10% fetal bovine serum (Hyclone cat #SH30071.03), 4 mM glutamine (Cellgro cat #25-005-CI), 150 ug/ml hygromycin B (Cellgro cat #30-240-CR), 150 ug/ml G418 (Cellgro cat #30-234-CR), and 50 u/50 ug penicillin/streptomycin (Lonza cat #17-603E). […]\nReceptor G-protein mediated responses were determined by measuring changes in intracellular cAMP using CisBio HTRF cAMP HiRange kit (cat #62AM6PEJ) based on time-resolved fluorescence resonance energy transfer (TR-FRET). […] Following a 30 minute incubation at 37° C. the components of the cAMP HiRange kit were added as directed and the plates were read after 1 hour on a BMG PheraStar plate reader. Responses were measured as the ratio of fluorescence at 665 nm/620 nm per manufacturer's instructions."}, "[2]": {"target": "T1, delta-opioid receptor (Accession NP_000902)", "test": "β-arrestin recruitment assay (DiscoveRx PathHunter)", "assay_type": "cell-based", "details": "β-arrestin pathway, HEK-293 stable line", "method": "as §1\nCell lines were grown adherently in Minimum Essential Media (Cellgro cat #10-010-CM) containing 10% fetal bovine serum (Hyclone cat #SH30071.03), 4 mM glutamine (Cellgro cat #25-005-CI), 150 ug/ml hygromycin B (Cellgro cat #30-240-CR), 150 ug/ml G418 (Cellgro cat #30-234-CR), and 50 u/50 ug penicillin/streptomycin (Lonza cat #17-603E). Prior to the assay cells were removed from the flasks with CellStripper (Cellgro cat #25-056-CI), repeatedly pipetted to disperse cells, and spun at low speed for 5 min at room temperature. Cells were then resuspended at 250,000 cells/ml in growth media and plated at 5,000 cells/well in 384 well plates (Greiner part #784080). […]\nReceptor mediated beta-arrestin recruitment was determined using the DiscoveRx β-arrestin PathHunter Detection kit (cat #93-0001). […] Following a 60 minute incubation at 37° C. the components of the DiscoveRx β-arrestin PathHunter Detection kit were added as directed and the plates were read after 1 hour on a BMG PheraStar plate reader."}}, "data": [{"molecule": "CCCN1C[C@H](COc2ccc3c(c2)C(=O)NC3)[C@@H](c2ccc(F)cc2)C1", "note": "[Compound A0045]", "values": [{"measurement": "Active TST Dose", "setting": "adult male C57 mice", "result": "≤10", "unit": "mg/kg"}]}, {"molecule": "CCCN1C[C@H](COc2ccc3c(c2)C(=O)NC3)[C@H](c2ccc(F)cc2)C1", "note": "[Compound A0073]", "values": [{"measurement": "Active TST Dose", "setting": "adult male C57 mice", "result": "≤30", "unit": "mg/kg"}]}, {"molecule": "CCCN1C[C@@H](COc2ccc3c(c2)C(=O)NC3)[C@H](c2ccc(F)cc2)C1", "note": "[Compound A0090]", "values": [{"measurement": "Active TST Dose", "setting": "adult male C57 mice", "result": "≤10", "unit": "mg/kg"}]}, {"molecule": "CCCN1C[C@H](COc2ccc3c(c2)C(=O)NC3)[C@H](c2ccccc2)C1", "note": "[Compound A0095]", "values": [{"measurement": "Active TST Dose", "setting": "adult male C57 mice", "result": "≤10", "unit": "mg/kg"}]}, {"molecule": "O=C1NCc2ccc(OC[C@@H]3CN(CC4CC4)C[C@H]3c3ccc(F)cc3)cc21", "note": "[Compound A0105]", "values": [{"measurement": "Active TST Dose", "setting": "adult male C57 mice", "result": "≤10", "unit": "mg/kg"}]}, {"molecule": "CCCN1C[C@H](COc2ccc3c(c2)C(=O)NC3)[C@H](c2ccc(F)c(F)c2)C1", "note": "[Compound A0108]", "values": [{"measurement": "Active TST Dose", "setting": "adult male C57 mice", "result": "≤10", "unit": "mg/kg"}]}, {"molecule": "CCCN1C[C@H](COc2ccc3c(c2)C(=O)NC3)[C@H](c2ccc(OCCN3C(=O)CCC3=O)cc2)C1", "note": "[Compound A0113]", "values": [{"measurement": "Active TST Dose", "setting": "adult male C57 mice", "result": "≤10", "unit": "mg/kg"}]}, {"molecule": "COc1ccc([C@@H]2CN(CC3CC3)C[C@@H]2COc2ccc3c(c2)C(=O)NC3)cc1F", "note": "[Compound A0116]", "values": [{"measurement": "Active TST Dose", "setting": "adult male C57 mice; po", "result": "≤30", "unit": "mg/kg"}]}, {"molecule": "CCCN1C[C@@]2(COc3ccc4c(c3)C(=O)NC4)C[C@@]2(c2cccc(F)c2)C1", "note": "[Compound A0128]", "values": [{"measurement": "Active TST Dose", "setting": "adult male C57 mice; po", "result": "≤30", "unit": "mg/kg"}]}, {"molecule": "Fc1ccc([C@@H]2CCNC[C@H]2COc2ccc3c(c2)OCO3)cc1", "note": "[Paroxetine, paroxetine]", "values": [{"measurement": "hDOR G Span", "setting": "[1]; G-protein (cAMP) pathway, HEK-293 stable line", "result": "<100"}, {"measurement": "selectivity for the delta-opioid receptor", "setting": "[1]; versus mu- and kappa-opioid receptor", "result": "non-selective agonist"}, {"measurement": "hDOR B Span", "setting": "[2]", "result": "<100"}, {"measurement": "EC50", "setting": "[2]; read-out: hDOR B pEC50 (converted)", "result": "> 1", "unit": "µM"}]}]}
